From paper PMC12111632, “Expression, purification and preliminary pharmacological characterization of the Plasmodium falciparum membrane-bound pyrophosphatase type 1” (PLOS One, 2025)
Where a name gives a salt, the structure may show the parent alone. Read-outs that look alike come from different tables or passages of the source. One block for each molecule: values may come before it.

Key:
TmPPase [1] = biological target: T1, TmPPase (Thermotoga maritima, UniProt Q9S5X0); experiment: TmPPase inhibition assay (96-well molybdenum blue colorimetric phosphate assay); type: biochemical; design: made in house
T1 sequence (Q9S5X0 1-726): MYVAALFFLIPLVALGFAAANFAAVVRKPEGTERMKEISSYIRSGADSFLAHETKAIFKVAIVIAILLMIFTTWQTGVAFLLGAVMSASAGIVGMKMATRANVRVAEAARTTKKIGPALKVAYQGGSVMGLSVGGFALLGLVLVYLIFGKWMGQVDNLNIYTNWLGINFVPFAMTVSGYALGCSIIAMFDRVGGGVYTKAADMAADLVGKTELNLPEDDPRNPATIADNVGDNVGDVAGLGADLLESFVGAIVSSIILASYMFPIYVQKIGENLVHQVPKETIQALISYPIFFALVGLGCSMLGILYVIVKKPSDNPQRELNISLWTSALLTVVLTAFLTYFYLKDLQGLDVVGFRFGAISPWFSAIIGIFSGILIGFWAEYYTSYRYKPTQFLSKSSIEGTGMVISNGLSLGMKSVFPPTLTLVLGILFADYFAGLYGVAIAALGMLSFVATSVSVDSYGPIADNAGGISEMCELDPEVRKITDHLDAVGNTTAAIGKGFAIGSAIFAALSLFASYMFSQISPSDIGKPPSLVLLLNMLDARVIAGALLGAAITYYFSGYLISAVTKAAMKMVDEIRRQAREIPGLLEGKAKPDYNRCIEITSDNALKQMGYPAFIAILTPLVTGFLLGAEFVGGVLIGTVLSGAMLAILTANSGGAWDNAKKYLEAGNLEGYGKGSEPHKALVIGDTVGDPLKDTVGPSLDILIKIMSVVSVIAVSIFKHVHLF

PfPPase-VP1 = PfPPase-VP1 (Plasmodium falciparum, UniProt Q8IKR1); experiment: biochemical
Method: The activity of PfPPase-VP1 was determined using a molybdenum blue colorimetric activity assay in 96-well plate format to measure the amount of phosphate production, as previously described for TmPPase but with modifications to pH (5.2–10) and temperature conditions (20–70°C) as described below. To determine the optimal pH for PfPPase-VP1 activity, 5 μL of 2.5 mg/mL total membrane protein was added to the reaction mixture (60 mM of various buffers (below) with pHs ranging from 5.2–10.0, 3 mM MgCl2, 100 mM KCl, and 10 mM NaCl, 100 mM NaF, 5 μM Gramicidin D), to a final volume of 40 μL. Buffers were trisodium-citrate (pH 5.2), MES (pH 6.5), Tris-HCl (pH 6.8, 7.5, 8.0, and 8.8) and glycine-NaOH (pH 10.0). A control sample was prepared by heating the membrane faction at 90 °C for 5 min to inactivate the enzyme. The reaction mixture was incubated at 30 °C for 5 min in a 96-well heating block. After incubation, 10 µl of 2 mM sodium pyrophosphate (PPi) was added, mixed, and incubated for 10 min. The reaction was stopped by adding 60 μL of premixed solution A (0.3 g ascorbic acid in 10 mL of 0.5 M cold HCl) and solution B (70 mg of ammonium heptamolybdate tetrahydrate in 1 mL of cold milli-Q water) and incubating on ice for 1 h. Finally, 90 μL sodium arsenite solution (5 g sodium arsenite, 5 g trisodium citrate dihydrate and 5 mL of iced-acetic acid in 250 mL milli-Q water) was added and incubated at RT for 30 min. Absorbance was measured at 860 nm on a MultiSkan Go UV/Vis spectrophotometer (Thermo Scientific). The specific activity of PfPPase-VP1 in the membrane was calculated using our previously published formula [23]. 60 mM Tris-Cl (pH 7.5) buffer was then selected for optimization of the reaction temperature (RT, 30 °C, 40 °C, 50 °C, 60 °C and 70 °C) by repeating the assay as described above. […] For the activity assay of purified PfPPase-VP1, 0.15 μg of the enzyme in the optimized detergent solution was mixed with 0.8 μL of 20 mg/mL liposomes (soybean lecithin) and then reaction buffer (60 mM Tris-HCl (pH 7.5), 3 mM MgCl2, 100 mM KCl, and 10 mM NaCl) was added to a total volume of 40 μL. The reaction mixture was preheated at 50 °C for 5 min before adding 10 µl of 2mM PPi and mixing. The catalytic reaction was run for 45 min at 50 °C, and the phosphate production was determined as described above. IDP, a known mPPase competitive inhibitor [35], was used as a positive control to validate the assay for inhibitor screening.
The 35 compounds used in this study were pre-dissolved in dimethyl sulfoxide (DMSO) at concentrations of 25–50 mM.
IDP was used in parallel as a positive control. Each concentration of the test compounds was tested in triplicate.

TmPPase [2] = biological target: T1, TmPPase; design: made in house; host or cells: S. cerevisiae; settings: cited from earlier work
[3] = purified PfPPase-VP1 reconstituted in liposomes, Tris-HCl pH 7.5, 50 °C, 45 min, triplicate, interval given
[4] = interval given, read-out: IC50 (TmPPase)

Sequence of PfPPase-VP1 (Q8IKR1 entry or part of it): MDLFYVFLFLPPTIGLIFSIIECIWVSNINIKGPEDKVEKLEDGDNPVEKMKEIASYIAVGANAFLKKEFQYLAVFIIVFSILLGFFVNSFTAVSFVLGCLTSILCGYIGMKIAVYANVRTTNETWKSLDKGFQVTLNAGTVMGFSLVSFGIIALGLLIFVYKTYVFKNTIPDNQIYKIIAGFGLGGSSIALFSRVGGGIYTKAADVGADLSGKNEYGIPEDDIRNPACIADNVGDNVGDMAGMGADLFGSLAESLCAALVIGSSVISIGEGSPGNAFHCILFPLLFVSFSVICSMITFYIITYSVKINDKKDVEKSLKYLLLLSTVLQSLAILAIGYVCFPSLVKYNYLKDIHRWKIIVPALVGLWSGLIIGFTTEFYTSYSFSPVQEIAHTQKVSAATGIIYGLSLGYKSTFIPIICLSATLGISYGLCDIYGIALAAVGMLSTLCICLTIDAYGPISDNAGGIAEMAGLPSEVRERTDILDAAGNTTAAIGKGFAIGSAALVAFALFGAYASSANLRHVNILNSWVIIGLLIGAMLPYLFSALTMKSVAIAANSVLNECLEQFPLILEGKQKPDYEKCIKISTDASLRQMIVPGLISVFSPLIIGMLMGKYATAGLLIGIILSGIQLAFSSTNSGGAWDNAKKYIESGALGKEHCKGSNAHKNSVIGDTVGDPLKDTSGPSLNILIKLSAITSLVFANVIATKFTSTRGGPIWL

SMILES: OC(c1cc(C(F)(F)F)nc2c(C(F)(F)F)cccc12)C1CCCCN1 (stereo not drawn) [Compound 5, Mefloquine hydrochloride]
- IC50 (TmPPase, μM) (TmPPase [1]): Inactive

SMILES: O=CN(O)CCCP(=O)(O)O [Compound 9, Fosmidomycin]
- IC50 (PfPPase, μM) (PfPPase-VP1; [3]): Inactive
- IC50 (TmPPase, μM) (TmPPase [1]): Inactive

SMILES: CC(=O)N(O)CCCP(=O)(O)O [Compound 10, FR900098 (sodium salt)]
- IC50 (PfPPase, μM) (PfPPase-VP1; [3]): Inactive
- IC50 (TmPPase, μM) (TmPPase [1]): Inactive

SMILES: [H]/N=C(\N/C(=N/[H])Nc1ccc(Cl)cc1)NC(C)C [Compound 6, Proguanil hydrochloride]
- IC50 (PfPPase, μM) (PfPPase-VP1; [3]): Inactive
- IC50 (TmPPase, μM) (TmPPase [1]): Inactive

- IC50 (PfPPase, μM) (PfPPase-VP1; [3]): Inactive
- IC50 (TmPPase, μM) (TmPPase [1]): Inactive
SMILES: CCN(CC)CCCC(C)Nc1ccnc2cc(Cl)ccc12 (stereo not drawn) [Compound 12, Chloroquine diphospate salt]

SMILES: CCN(CCO)CCCC(C)Nc1ccnc2cc(Cl)ccc12 (stereo not drawn) [Compound 13, Hydroxychloroquine sulfate]
- IC50 (PfPPase, μM) (PfPPase-VP1; [3]): Inactive
- IC50 (TmPPase, μM) (TmPPase [1]): Inactive

SMILES: CC1(C)N=C(N)N=C(N)N1c1ccc(Cl)cc1 [Compound 4, Cycloguanil hydrochloride]
- IC50 (PfPPase, μM) (PfPPase-VP1; [3]): Inactive
- IC50 (TmPPase, μM) (TmPPase [1]): Inactive

- IC50 (PfPPase, μM) (PfPPase-VP1; [3]): Inactive
- IC50 (TmPPase, μM) (TmPPase [1]): Inactive
SMILES: CCN(CC)CCCC(C)Nc1ccnc2cc(Cl)ccc12 (stereo not drawn) [Compound 11, Chloroquine]

SMILES: C[C@H]1c2cccc(O)c2C(=O)C2=C(O)[C@]3(O)C(=O)C(C(N)=O)=C(O)[C@@H](N(C)C)[C@@H]3[C@@H](O)[C@@H]21 [Compound 7, Doxycyline monohydrate]
- IC50 (PfPPase, μM) (PfPPase-VP1; [3]): Inactive
- IC50 (TmPPase, μM) (TmPPase [1]): Inactive

- IC50 (PfPPase, μM) (PfPPase-VP1; [3]): Inactive
SMILES: CCOC(=O)c1cc(-c2ccc(OC)c(S(=O)(=O)N3CCCSc4ccccc43)c2)on1 [Compound 15]

SMILES: O=C1C(O)=C([C@H]2CC[C@H](c3ccc(Cl)cc3)CC2)C(=O)c2ccccc21 [Compound 8, Atovaquone]
- IC50 (PfPPase, μM) (PfPPase-VP1; [3]): Inactive
- IC50 (TmPPase, μM) (TmPPase [1]): Inactive

SMILES: CCN(CCO)CCCC(C)Nc1ccnc2cc(Cl)ccc12 (stereo not drawn) [Compound 14, Hydroxychloroquine]
- IC50 (PfPPase, μM) (PfPPase-VP1; [3]): Inactive
- IC50 (TmPPase, μM) (TmPPase [1]): Inactive

- IC50 (PfPPase, μM) (PfPPase-VP1; [3]): Inactive
SMILES: Cc1cc(C)cc(-c2cc(C(=O)Oc3ccccc3Br)no2)c1 [Compound 17]
- IC50 (TmPPase [2]; [4]): 6.7 µM

SMILES: CC(C)(C)c1cc(-c2cc(C(=O)Oc3ccccc3Br)no2)cc(C(C)(C)C)c1 [Compound 18]
- IC50 (PfPPase, μM) (PfPPase-VP1; [3]): Inactive
- IC50 (TmPPase [2]; [4]): 10 µM

SMILES: O=P(O)(O)NP(=O)(O)O [IDP, imidodiphosphate]
- IC50 (PfPPase-VP1; purified PfPPase-VP1 reconstituted in liposomes, Tris-HCl pH 7.5, 50 °C, 45 min, triplicate, interval given, read-out: IC50 (PfPPase)): 175 µM

SMILES: N=C(N)c1ccc(-c2ccc(-c3ccc(C(=N)N)cc3)o2)cc1 [Compound 2, Furamidine dihydrochloride]
- IC50 (PfPPase-VP1): 190 µM
- IC50 (TmPPase, μM) (TmPPase [1]): Inactive

SMILES: C=Cc1cc2nc(C(=O)Oc3ccccc3Br)cc(-c3cc(C)cc(C)c3)n2n1 [Compound 20]
- IC50 (TmPPase [2]; read-out: IC50 against TmPPase): < 20 µM

SMILES: C[C@@H]1CC[C@H]2[C@@H](C)C(=O)O[C@@H]3O[C@@]4(C)CC[C@@H]1[C@]32OO4 [Compound 1, Artemisinin]
- IC50 (PfPPase, μM) (PfPPase-VP1; [3]): Inactive
- IC50 (TmPPase, μM) (TmPPase [1]): Inactive

SMILES: N=C(N)c1ccc(OCCCCCOc2ccc(C(=N)N)cc2)cc1 [Compound 3, Pentamidine isethionate]
- IC50 (TmPPase, μM) (TmPPase [1]): Inactive

SMILES: C=Cc1cc2nc(C(=O)O)cc(-c3cc(C)cc(C)c3)n2n1 [Compound 19]
- IC50 (TmPPase [2]; read-out: IC50 against TmPPase): < 20 µM

SMILES: COc1cc(C2c3c(-c4cc(Cl)c(C)cc4O)n[nH]c3C(=O)N2Cc2ccccc2)ccc1O (stereo not drawn) [Compound 16]
- IC50 (PfPPase, μM) (PfPPase-VP1; [3]): Inactive
- IC50 (TmPPase [2]; [4]): 33 µM
